The values that follow come from patent US6432928B1, “Complexes and their compositions” (Chinoin Gyogyszer es Vegyeszeti Termekek Gyara Rt., priority 1994, dated 2002).

A short description of data set [1]: physchem. Conditions: 25 °C, water.
A short description of data set [2]: Solubility of Taxol with cyclodextrins and co-solvents, Higuchi-Connor method, HPLC. The settings on record: for solubility: Taxol with RAMEB.
Data set [3] can be described thus: Appearance and Taxol content of the compositions as prepared. Type of data set: physicochemical. Conditions: Taxol alone dissolved in ethanol or 1:1 ethanol and water.
The conditions of data set [4]: cited from earlier work.
Data set [5] can be described thus: physchem. Conditions: 22 °C, thermodynamic from solid.
The subject of a further data set is cell line PC 3. As to the kind of experiment: SRB-assay of cell growth, cell line PC 3. Type of data set: cell-based, human. Conditions: for cell growth by SRB-assay, extinction at 540 nm / cell growth, % of control: PC 3, 10^−6M of Taxol and cyclodextrin; for cell growth, % of control: control = 100%; for toxicity to the cells, in words: PC 3, tested concentration of Table 2 (10^−6M, 0.001 mM). The method, then: (§1) As control solutions containing similar amounts of cyclodextrins and no Taxol, further the Taxol-Cremophor EL composition. Cremophor EL solution and the untreated cell cultures were examined.
(§2) The experiments were carried out and evaluated on both cell lines according to the examination methods of F. Skehan et al [New Colorimetric Assay of Anticancer Drug Screening, J. Natl. Canc. Inst. 82, 1107-1113 (1990) and A. Martin and M. Clynes (Comparison of 5 Microplate Colorimetric Assays for in Vitro Cytotoxicity Testing and Cell Proliferation Assays, Cytotechnology 11, 49-58 (1993)] in the Pathological and Experimental Cancer Research Institute No. 1 of the Semmelweis Medical University, Budapest.
(§3) The cells were exposed in a RPMI 1640 medium containing 10% of Foetal Calf Serum (FCS) medium on a microplate of 96 wells, by placing 5000 cells in 100 μl of medium.
(§4) The cell cultures were treated after 24 hours with a solution containing the test substances in 100 μl of a FCS-free RPMI medium, thus the final concentration of FCS became 5%. Every evaluation point is the averaged result of 8 parallels, the control was present in 8 parallels on each plate, thus the evaluation point was obtained by averaging 24 parallels. The eight test compositions were examined simultaneously, in one test on each cell line.
(§5) After 72 and 96 hours the cell growth was measured by SRB-assay (the determining method is SRB-painting of the total protein, the total protein is proportional to the cell growth, the extinction was read by a Microplate reader at a wave length of 540 nm).
In general terms: In SRB staining, fixed cells bind dye roughly in proportion to their protein.

The test system of a further data set is cell line K562. As to the kind of experiment: SRB-assay of cell growth, cell line K 562. Type of data set: cell-based, human. The settings on record: for cell growth by SRB-assay, extinction at 540 nm / cell growth, % of control: K562, 10−6M of Taxol and cyclodextrin; for cell growth, % of control: control = 100%; for toxicity to the cells, in words: K562, tested concentration of Table 3 (10−6M, 0.001 mM). The method, then:
as §1, §2, §3, §4, §5

For data set [6] the following is noted: cited from earlier work. This is another data set of the same source.
For the next data set, the system named is mouse. Conditions: mouse experiments, a 50% triacetine emulsion; cited from earlier work.

Converted amounts (≈) assume the structure as drawn. Where two headings read alike, the source gives them in different places.

By solubility is commonly meant the concentration that dissolves in the medium under given conditions. In the case of `CC(=O)O[C@H]1C(=O)[C@@]2(C)[C@H]([C@H](OC(=O)c3ccccc3)[C@]3(O)C[C@H](OC(=O)[C@H](O)[C@@H](NC(=O)c4ccccc4)c4ccccc4)C(C)=C1C3(C)C)[C@]1(OC(C)=O)CO[C@@H]1C[C@@H]2O` (relative stereo) [Taxol, [2aR-[2aα,4β,4αβ,6β,9α(αR*,βS*a11α,12α,12aα,12bα]]-β-(benzoylamino)-α-hydroxy-benzene-propanoic acid 6,12-b-bis(acetyloxy)-12-(benzoyloxy)-2a,3-4,4a,5,6,9,10,11,12,12a,12b-dodecahydro-4,11-dihydroxy-4a,8,13,13-tetra-methyl-5-oxo-7,11-methano-1H-cyklodeca[3,4]-benz-[1,2-b]-oxeth-9-yl-ester]], the solubility in the data set “physchem [1]” is 0.55 to 0.59 µg/mL (≈ 0.000644 to 0.000691 mM); in data set [2] (molar ratio Taxol:CD 1:278, water), 0.8599 mg/mL; in data set [2] (molar ratio Taxol:CD 1:750, water), 0.0425 mg/mL; in [2] (molar ratio Taxol:CD 1:1500, water), 0.0044 mg/mL; in data set [2] (molar ratio Taxol:CD 1.300, water), 0.2317 mg/mL; in data set [4] (250-350 moles of a methylated cyclodextrin derivative related to 1 mole of Taxol (Hungarian application P93 01373)), “about 1 mg/ml”. In addition, the solubility in [4] (with γ-cyclodextrin, molar ratio of 1:20) was 0.16 mg/mL. For the same molecule, the “remark (appearance)” value was “white” in data set [2] (Taxol 4 mg/ml with γ-CD 1:63, 2:1 ethanol:water, remark wraps over r10-r11: white suspension) and “clear solution” in [2] (Taxol 4 mg/ml, no CD, 2:1 ethanol:water, remark wraps over r6-r9: clear solution. opalescening. then white precipitate). Also, in data set [3], the behaviour on dilution result is given as “immediately precipitates when diluted”. In data set [4] (mixed micelle system with bile acid salts and phospholipide), the “solubility of Taxol” value is 0.8 mg/mL. Besides, the solubility at 24 h in the data set “physchem [5]” (2:1 ethanol:water, aqueous with cosolvent or surfactant or cyclodextrin) was 4000 µg/mL (≈ 4.68 mM); in “physchem [5]” (DIMEB in 2:1 ethanol:water, aqueous with cosolvent or surfactant or cyclodextrin) it was 4000 µg/mL (≈ 4.68 mM); in the data set “physchem [5]” (DIMEB in water, aqueous with cosolvent or surfactant or cyclodextrin), roughly 1000 µg/mL (≈ 1.17 mM); in the data set “physchem [5]” (OH-P-βCD in water, aqueous with cosolvent or surfactant or cyclodextrin), 100 µg/mL (≈ 0.117 mM); in “physchem [5]” (RAMEB in 2:1 ethanol-water, aqueous with cosolvent or surfactant or cyclodextrin), 4000 µg/mL (≈ 4.68 mM); in the data set “physchem [5]” (RAMEB in ethanol-water, aqueous with cosolvent or surfactant or cyclodextrin), 4000 µg/mL (≈ 4.68 mM). The solubility at 24 h was determined as 5.9 µg/mL (≈ 0.00691 mM) in “physchem [5]” (water) and 4000 µg/mL (≈ 4.68 mM) in the data set “physchem [5]” (γ-CD in 2:1 ethanol:water, aqueous with cosolvent or surfactant or cyclodextrin).

`COC[C@H]1O[C@@H]2O[C@H]3[C@H](O)[C@@H](OC)[C@@H](O[C@H]4[C@H](O)[C@@H](OC)[C@@H](O[C@H]5[C@H](O)[C@@H](OC)[C@@H](O[C@H]6[C@H](O)[C@@H](OC)[C@@H](O[C@H]7[C@H](O)[C@@H](OC)[C@@H](O[C@H]8[C@H](O)[C@@H](OC)[C@@H](O[C@H]1[C@H](O)[C@H]2OC)O[C@@H]8COC)O[C@@H]7COC)O[C@@H]6COC)O[C@@H]5COC)O[C@@H]4COC)O[C@@H]3COC` [DIMEB, heptakis-2,6-0-dimethyl-β-cyclodextrin]: the “cell growth by SRB-assay, extinction at 540 nm” value came to 0.725 ± 0.200 in the data set on cell line PC 3 (incubation time 72 hours), 0.819 ± 0.178 in the data set on cell line K562 (incubation time 72 hours) and 1.729 ± 0.185 in the data set with cell line K562 (incubation time 96 hours). Further, the “cell growth, % of control” value in the data set on cell line PC 3 (incubation time 72 hours) was “(96%)”; in the data set with cell line PC 3 (incubation time 96 hours), “(102%)”; in the data set on cell line K562 (incubation time 72 hours), “(74%)”; with cell line K562 (incubation time 96 hours) it was “(110%)”. The “toxicity to the cells, in words” value in the data set with cell line PC 3 and with cell line K562 was “not toxic” in each case.

For `O=C(O)c1ccccc1Nc1cccc(C(F)(F)F)c1` [flufenamic acid], in [6] (aqueous, without methanol), the ““aqueous” stability constant” value is 1300 M⁻¹. Further, the stability constant result in [6] (in the presence of 25% by volume methanol) is “about 400 M^31 1”.

In the case of `CC(=O)OCC(COC(C)=O)OC(C)=O` [triacetine, 1,2,3-triacetyl-glycerol], the LD50 in the data set with mouse is 1.2 mg/mL.

As for `OC[C@H]1O[C@@H]2O[C@H]3[C@H](O)[C@@H](O)[C@@H](O[C@H]4[C@H](O)[C@@H](O)[C@@H](O[C@H]5[C@H](O)[C@@H](O)[C@@H](O[C@H]6[C@H](O)[C@@H](O)[C@@H](O[C@H]7[C@H](O)[C@@H](O)[C@@H](O[C@H]8[C@H](O)[C@@H](O)[C@@H](O[C@H]9[C@H](O)[C@@H](O)[C@@H](O[C@H]1[C@H](O)[C@H]2O)O[C@@H]9CO)O[C@@H]8CO)O[C@@H]7CO)O[C@@H]6CO)O[C@@H]5CO)O[C@@H]4CO)O[C@@H]3CO` [γ-CD, γ-cyclodextrin], the “cell growth by SRB-assay, extinction at 540 nm” value in the data set on cell line PC 3 (incubation time 72 hours) is 0.582 ± 0.126; in the data set on cell line PC 3 (incubation time 96 hours), 0.937 ± 0,214; in the data set on cell line K562 (incubation time 72 hours) it was 0.555 ± 0.200; in the data set on cell line K562 (incubation time 96 hours) it was 0.531 ± 0,072. Also, the “cell growth, % of control” value in the data set with cell line PC 3 (incubation time 72 hours) is given as “(77%)”; in the data set on cell line PC 3 (incubation time 96 hours) it was “(71%)”; with cell line K562 (incubation time 72 hours), “(50%)”; in the data set with cell line K562 (incubation time 96 hours), “(34%)”. For the same molecule, the “toxicity to the cells, in words” value in the data set on cell line PC 3 is on record as “slightly toxic”; in the data set with cell line K562 it was “very toxic”.
